Assay [1] has as its system P. aeruginosa Ps296 expressing VIM-2. Briefly: Broth microdilution MIC assay, partner meropenem. Format: cell-based. The conditions noted are these: Pseudomonas aeruginosa, read-out: MIC of Exemplary Compounds in presence of fixed β-lactams, Fixed Mero, P. aerug. Ps296 VIM-2. In general terms: Dilution methods test growth across graded concentrations, often in twofold steps.

Assay [2] relates to K. pneumoniae 156319 expressing KPC-3. Briefly: Broth microdilution MIC assay, partner meropenem. Format: cell-based. The conditions noted are these: Klebsiella pneumoniae, read-out: MIC of Exemplary Compounds in presence of fixed β-lactams, Fixed Mero, K.P. 156319 KPC-3.
Assay [3] has as its system E. coli ESBL4 expressing CTX-M-15. The assay is described as follows: Broth microdilution MIC assay, partner ceftazidime.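 Note: ceftazidime held fixed at 4 µg/mL.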 In kind it is cell-based. To be noted: Escherichia coli, read-out: MIC of Exemplary Compounds in presence of fixed β-lactams, Fixed CAZ, E. coli ESBL4 CTX-M-15.
In assay [4] the test system is E. cloacae 144200 expressing Class C P99 AmpC. The assay is described as follows: Broth microdilution MIC assay, partner ceftazidime.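 Note: ceftazidime held fixed at 4 µg/mL.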 In kind it is cell-based. The conditions noted are these: Enterobacter cloacae, read-out: MIC of Exemplary Compounds in presence of fixed β-lactams, Fixed CAZ, E. cl. 144200 p99 AmpC.
Assay [5] relates to K. pneumoniae A-1797 expressing KPC-2 and VIM-4. The assay is described as follows: Broth microdilution MIC assay, partner meropenem. In kind it is cell-based. To be noted: Klebsiella pneumoniae, read-out: MIC of Exemplary Compounds in presence of fixed β-lactams, Fixed Mero, K.P. A-1797 KPC-2 VIM-4.
The test system of assay [6] is S. aureus MSSA-7 producing penicillinase PC-1. Briefly: Broth microdilution MIC assay, partner piperacillin. In kind it is cell-based. To be noted: Staphylococcus aureus, read-out: MIC of Exemplary Compounds in presence of fixed β-lactams, Fixed Pip, S. aureus MSSA-7 PC-1.
Assay [7] deals with T1, VIM-2 (Escherichia coli, UniProt Q5U7L7).
T1 construct: made in house; host or cells: E. coli BL21(DE3)
Briefly: β-Lactamase enzyme inhibition assay, VIM-2 (nitrocefin substrate). Format: biochemical. In short, it runs like this: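 Purified VIM-2 (Q sepharose anion exchange, HEPES pH 7.5) preincubated with inhibitor 15 min at 37° C. Nitrocefin added at 100 μM final; absorbance at 486 nm monitored 10 min. IC50 from inhibition of initial hydrolysis rate versus inhibitor-free controls.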

The mark [8] stands for this setting: nitrocefin substrate 100 μM, 15 min preincubation at 37° C., read-out: IC50, Class B VIM-2.

Read-outs that look alike come from different tables or passages of the source.

The term MIC denotes the lowest concentration that inhibits growth of the organism. The term IC50 denotes the concentration at which inhibition is half-maximal. In the case of `O=C(O)c1cccc2c1OB(O)[C@@H](NC(=O)C1(c3ccccc3)CCNCC1)C2` [Example 3, (R)-2-hydroxy-3-(4-phenylpiperidine-4-carboxamido)-3,4-dihydro-2H-benzo[e][1,2]oxaborinine-8-carboxylic acid], the MIC in assay [1] was 8 to 32 µg/mL; in assay [2] it was less than 4 µg/mL; in assay [3], less than 4 µg/mL; in assay [4] it was less than 4 µg/mL; in assay [5] it was more than 32 µg/mL; in assay [6] it was more than 32 µg/mL. In assay [7], this compound came in with an IC50 of 1000 to 10000 nM.

Take `O=C(N[C@H]1Cc2cccc(C(=O)O)c2OB1O)c1cnc2[nH]ccc2c1` [Example 35, (R)-2-Hydroxy-3-[(1H-pyrrolo[2,3-b]pyridine-5-carbonyl)-amino]-3,4-dihydro-2H-benzo[e][1,2]oxaborinine-8-carboxylic acid]: the MIC is less than 4 µg/mL in assay [1]; less than 4 µg/mL in assay [2]; less than 4 µg/mL in assay [3]; less than 4 µg/mL in assay [4]; more than 32 µg/mL in assay [5]; less than 4 µg/mL in assay [6] (fixed piperacillin 4 μg/mL). Moreover, the IC50 in assay [7] (setting [8]) is 100 to 1000 nM.

Turning to `CN1Cc2ccc(C(=O)N[C@H]3Cc4cccc(C(=O)O)c4OB3O)cc2C1` [Example 10, (R)-2-hydroxy-3-(2-methylisoindoline-5-carboxamido)-3,4-dihydro-2H-benzo[e][1,2]oxaborinine-8-carboxylic acid], the MIC in assay [1] was 8 to 32 µg/mL; in assay [2], less than 4 µg/mL; in assay [3], less than 4 µg/mL; in assay [4], less than 4 µg/mL; in assay [5] it was less than 4 µg/mL; in assay [6] (fixed piperacillin 4 μg/mL), less than 4 µg/mL. In assay [7] (setting [8]), the IC50 was less than 100 nM.

Consider `O=C(N[C@H]1Cc2cccc(C(=O)O)c2OB1O)c1cnco1` [Example 52, (R)-2-Hydroxy-3-[(oxazole-5-carbonyl)-amino]-3,4-dihydro-2H-benzo[e][1,2]oxaborinine-8-carboxylic acid], for which the minimal inhibitory concentration (MIC) in assay [1] is 8 to 32 µg/mL; in assay [2], less than 4 µg/mL; in assay [3], less than 4 µg/mL; in assay [4], less than 4 µg/mL; in assay [5] it was more than 32 µg/mL; in assay [6] (fixed piperacillin 4 μg/mL) it was less than 4 µg/mL. Further, the IC50 in assay [7] (setting [8]) was in the range of 100 to 1000 nM.

Consider `NCCOc1ccc(CC(=O)N[C@H]2Cc3cccc(C(=O)O)c3OB2O)cc1OCCN` [Example 58, (R)-3-(2-(3,4-bis(2-aminoethoxy)phenyl)acetamido)-2-hydroxy-3,4-dihydro-2H-benzo[e][1,2]oxaborinine-8-carboxylic acid], for which the MIC was less than 4 µg/mL in assay [1]; less than 4 µg/mL in assay [2]; less than 4 µg/mL in assay [3]; less than 4 µg/mL in assay [4]; 8 to 32 µg/mL in assay [5]; less than 4 µg/mL in assay [6] (fixed piperacillin 4 μg/mL). In addition, the half-inhibitory concentration (IC50) in assay [7] (setting [8]) fell in the range of 100 to 1000 nM.

Regarding `NCCn1ccc2c(C(=O)N[C@H]3Cc4cccc(C(=O)O)c4OB3O)cccc21` [Example 42, (R)-3-{[1-(2-Amino-ethyl)-1H-indole-4-carbonyl]-amino}-2-hydroxy-3,4-dihydro-2H-benzo[e][1,2]oxaborinine-8-carboxylic acid], the MIC in assay [1] is less than 4 µg/mL; in assay [2], more than 32 µg/mL; in assay [3], less than 4 µg/mL; in assay [4], less than 4 µg/mL; in assay [5] it was 8 to 32 µg/mL; in assay [6] (fixed piperacillin 4 μg/mL) it was less than 4 µg/mL. In assay [7] (setting [8]), the half-maximal inhibitory concentration (IC50) lay within 100 to 1000 nM.

In the case of `O=C(O)c1cccc2c1OB(O)[C@@H](NC(=O)c1c[nH]c3ncccc13)C2` [Example 8, (R)-2-hydroxy-3-(1H-pyrrolo[2,3-b]pyridine-3-carboxamido)-3,4-dihydro-2H-benzo[e][1,2]oxaborinine-8-carboxylic acid], the MIC in assay [1] was less than 4 µg/mL; in assay [2], more than 32 µg/mL; in assay [3], less than 4 µg/mL; in assay [4] it was less than 4 µg/mL; in assay [5] it was more than 32 µg/mL; in assay [6] (fixed piperacillin 4 μg/mL), less than 4 µg/mL. The concentration for half-maximal inhibition (IC50) in assay [7] (setting [8]) is 1000 to 10000 nM.

For the compound `O=C(O)c1cccc2c1OB(O)[C@@H](NC(=O)c1cccc3cc[nH]c13)C2` [Example 31, (R)-2-hydroxy-3-(1H-indole-7-carboxamido)-3,4-dihydro-2H-benzo[e][1,2]oxaborinine-8-carboxylic acid], the minimum inhibitory concentration (MIC) is 8 to 32 µg/mL in assay [1]; less than 4 µg/mL in assay [2]; less than 4 µg/mL in assay [3]; less than 4 µg/mL in assay [4]; more than 32 µg/mL in assay [5]; less than 4 µg/mL in assay [6] (fixed piperacillin 4 μg/mL). Further, in assay [7] (setting [8]), the half-maximal inhibitory concentration (IC50) is 1000 to 10000 nM.

Turning to `NCCOc1ccc(CC(=O)N[C@H]2Cc3cccc(C(=O)O)c3OB2O)cc1O` [Example 59, (R)-3-(2-(4-(2-aminoethoxy)-3-hydroxyphenyl)acetamido)-2-hydroxy-3,4-dihydro-2H-benzo[e][1,2]oxaborinine-8-carboxylic acid], the minimum inhibitory concentration (MIC) was less than 4 µg/mL in assay [1]; less than 4 µg/mL in assay [2]; less than 4 µg/mL in assay [3]; less than 4 µg/mL in assay [4]; 8 to 32 µg/mL in assay [5]; less than 4 µg/mL in assay [6] (fixed piperacillin 4 μg/mL). Also, in assay [7] (setting [8]), the IC50 was in the range of 100 to 1000 nM.

As to `CN1Cc2ccc(CC(=O)N[C@H]3Cc4cccc(C(=O)O)c4OB3O)cc2C1` [Example 48, (R)-2-Hydroxy-3-[2-(2-methyl-2,3-dihydro-1H-isoindol-5-yl)-acetylamino]-3,4-dihydro-2H-benzo[e][1,2]oxaborinine-8-carboxylic acid], the MIC in assay [1], in assay [2], in assay [3], in assay [4], in assay [5] and in assay [6] (fixed piperacillin 4 μg/mL) was less than 4 µg/mL in each case. In addition, the 50% inhibitory concentration (IC50) in assay [7] (setting [8]) was less than 100 nM.

For the compound `O=C(N[C@H]1Cc2cccc(C(=O)O)c2OB1O)c1ccc2c(c1)CCNC2` [Example 5, (R)-3-(2-borono-2-(1,2,3,4-tetrahydroisoquinoline-6-carboxamido)ethyl)-2-hydroxybenzoic acid], the minimum inhibitory concentration (MIC) was more than 32 µg/mL in assay [1]; less than 4 µg/mL in assay [2]; less than 4 µg/mL in assay [3]; less than 4 µg/mL in assay [4]; less than 4 µg/mL in assay [5]; less than 4 µg/mL in assay [6] (fixed piperacillin 4 μg/mL). In addition, the IC50 in assay [7] (setting [8]) is 100 to 1000 nM.

For `N=C(N)NCc1cc(CNC(=N)N)cc(C(=O)N[C@H]2Cc3cccc(C(=O)O)c3OB2O)c1` [Example 45, (R)-3-(3,5-bis(guanidinomethyl)benzamido)-2-hydroxy-3,4-dihydro-2H-benzo[e][1,2]oxaborinine-8-carboxylic acid], the minimum inhibitory concentration (MIC) is less than 4 µg/mL in assay [1]; less than 4 µg/mL in assay [2]; less than 4 µg/mL in assay [3]; less than 4 µg/mL in assay [4]; less than 4 µg/mL in assay [5]; more than 32 µg/mL in assay [6] (fixed piperacillin 4 μg/mL). In assay [7] (setting [8]), the IC50 is less than 100 nM.

With `O=C(N[C@H]1Cc2cccc(C(=O)O)c2OB1O)c1ccc(-c2ccncc2)cc1` [Example 27, (R)-2-hydroxy-3-(4-(pyridin-4-yl)benzamido)-3,4-dihydro-2H-benzo[e][1,2]oxaborinine-8-carboxylic acid], the minimum inhibitory concentration (MIC) in assay [1] is more than 32 µg/mL; in assay [2], more than 32 µg/mL; in assay [3] it was less than 4 µg/mL; in assay [4], less than 4 µg/mL; in assay [5] it was more than 32 µg/mL; in assay [6] (fixed piperacillin 4 μg/mL) it was less than 4 µg/mL. For the same compound, in assay [7] (setting [8]), the IC50 was 1000 to 10000 nM.

As for `NCCNc1ccc(CC(=O)N[C@H]2Cc3cccc(C(=O)O)c3OB2O)cc1` [Example 57, (R)-3-(2-(4-(2-aminoethylamino)phenyl)acetamido)-2-hydroxy-3,4-dihydro-2H-benzo[e][1,2]oxaborinine-8-carboxylic acid], the minimal inhibitory concentration (MIC) in assay [1] was less than 4 µg/mL; in assay [2], 8 to 32 µg/mL; in assay [3], less than 4 µg/mL; in assay [4] it was less than 4 µg/mL; in assay [5], less than 4 µg/mL; in assay [6] (fixed piperacillin 4 μg/mL) it was less than 4 µg/mL. In assay [7] (setting [8]), the 50% inhibitory concentration (IC50) is 1000 to 10000 nM.

`O=C(O)c1cccc2c1OB(O)[C@@H](NC(=O)C(F)(F)c1ccccc1)C2` [Example 2, (R)-3-(2,2-difluoro-2-phenylacetamido)-2-hydroxy-3,4-dihydro-2H-benzo[e][1,2]oxaborinine-8-carboxylic acid]: the MIC in assay [1] was 8 to 32 µg/mL; in assay [2], 8 to 32 µg/mL; in assay [3] it was less than 4 µg/mL; in assay [4], less than 4 µg/mL; in assay [5], more than 32 µg/mL; in assay [6] (fixed piperacillin 4 μg/mL), less than 4 µg/mL. The IC50 in assay [7] (setting [8]) was 1000 to 10000 nM.

With `O=C(N[C@H]1Cc2cccc(C(=O)O)c2OB1O)c1csc2c1CCNC2` [Example 4, (R)-2-hydroxy-3-(4,5,6,7-tetrahydrothieno[2,3-c]pyridine-3-carboxamido)-3,4-dihydro-2H-benzo[e][1,2]oxaborinine-8-carboxylic acid], the MIC is more than 32 µg/mL in assay [1]; less than 4 µg/mL in assay [2]; less than 4 µg/mL in assay [3]; less than 4 µg/mL in assay [4]; less than 4 µg/mL in assay [5]; less than 4 µg/mL in assay [6] (fixed piperacillin 4 μg/mL). Moreover, the IC50 in assay [7] (setting [8]) fell in the range of 100 to 1000 nM.

Source of the values: patent publication US9403850B2, “Beta-lactamase inhibitors” (priority 2013, dated 2016).
